The text below walks through data of ChEMBL document CHEMBL4834468, “Enantioselective Synthesis and Profiling of Potent, Nonlinear Analogues of Antimalarial Tetraoxanes E209 and N205” (ACS Med Chem Lett, 2021).

Data set [1] has as its system Plasmodium falciparum. In words: microbe, parasite or virus in culture. The settings on record: D10, 72 h.
Description: Antiplasmodial activity against chloroquine-sensitive Plasmodium falciparum D10 incubated for 72 hrs by spectrophotometry based parasite lactate dehydrogenase assay
Data set [2] has as its system Plasmodium falciparum. In words: microbe, parasite or virus in culture. The settings on record: W2, 72 h.
Description: Antiplasmodial activity against chloroquine-resistant Plasmodium falciparum W2 incubated for 72 hrs by spectrophotometry based parasite lactate dehydrogenase assay
A short description of data set [3]: Intrinsic clearance in human liver microsome up to 30 mins by LC-MS analysis. Type of data set: ADME. The settings on record: liver microsomes, read-out: CLH. (In general: Microsomes from liver hold many membrane-bound enzymes, among them those of drug oxidation.)
Data set [4] can be described thus: Solubility of compound in 0.1 M HCl. Type of data set: physicochemical.
Data set [5] can be described thus: Solubility of the compound in FaSSIF. Format: physicochemical.
Data set [6] in a line: Intrinsic clearance in rat hepatocytes measured per 10^6 cells up to 120 mins by LC-MS analysis. Type of data set: ADME, cell-based, Hepatocyte. The settings on record: read-out: CLH.
Data set [7] in a line: Solubility of the compound in FaSSIF assessed as equilibrium pH. Format: physicochemical. The note with it: simulated gi fluid.
Data set [8] can be described thus: Solubility of compound in 0.1 M HCl assessed as equilibrium pH. Type of data set: physicochemical. The settings on record: buffer.
Data set [9] in a line: Aqueous solubility of compound in PBS at pH 7.4. Type of data set: physicochemical.
Data set [10] is described as follows: Intrinsic clearance in mouse liver microsome assessed as half life by LC-MS/MS analysis. Format: ADME. The settings on record: microsomes.
Data set [11] can be described thus: Intrinsic clearance in mouse liver microsome by LC-MS/MS analysis. Type of data set: ADME, microsomes.
Data set [12] has as its system Plasmodium falciparum. In words: Antiplasmodial activity against chloroquine-sensitive Plasmodium falciparum 3D7. Type of data set: functional, organism-based.
Data set [13] can be described thus: Tmax in Sprague-Dawley rat at 10 mg/kg, po administered as single dose. The settings on record: in vivo. Type of data set: ADME, organism-based.
Data set [14] in a line: Cmax in Sprague-Dawley rat at 10 mg/kg, po administered as single dose. Set-up: route oral, dose 10 mg/kg. The note with it: in vivo. Type of data set: ADME, organism-based.
Data set [15] in a line: Oral bioavailability in Sprague-Dawley rat at 10 mg/kg administered as single dose. Type of data set: ADME, organism-based. The settings on record: in vivo.
A short description of data set [16]: AUC (infinity) in Sprague-Dawley rat at 10 mg/kg, po administered as single dose. Set-up: time infinity, route oral, dose 10 mg/kg. The settings on record: in vivo. Format: ADME, organism-based.

Structures are written as SMILES. In brackets after ≈: the same amount, converted by molar mass. A value given as a limit tells only on which side of the number the result lay.

Take `c1cc(C2CCC3(CC2)OOC2(OO3)C3CC4CC(C3)CC2C4)ccc1OCCN1CCOCC1` (centres undefined): the IC50 in the data set on Plasmodium falciparum [1] came to 12.4 nM; in the data set on Plasmodium falciparum [2] it was 10.1 nM.
In the case of `FC1CCN(Cc2ccc([C@@H]3CCCC4(C3)OOC3(OO4)C4CC5CC(C4)CC3C5)cc2)CC1` (some centres undefined), the microsomal CLint in [3] amounted to 35.9 µL/min/mg. Also, the figures for the solubility in data set [4] and in data set [9] were 95 µg/mL (≈ 201 µM) and 0.1 µM (≈ 0.0472 µg/mL), respectively. This compound also showed a solubility at 1 h in data set [5] of 195 µg/mL (≈ 413 µM). In addition, the 50% inhibitory concentration (IC50) was found to be 10.6 nM with Plasmodium falciparum [1] and 10.3 nM in the data set with Plasmodium falciparum [2]. Further, the hepatocyte CLint in data set [6] stood at 19.2 µL/min/1e6 cells. Moreover, the values for the pH in data set [7] and in data set [8] were 6.43 and 1.12, respectively.
`CC(C)(N)CNC(=O)C[C@H]1CC[C@]2(CC1)OO[C@]1(O2)C2CC3CC(C2)CC1C3` [OZ277]: the t1/2 in [10] is 128 min. Moreover, the CLH in [11] (microsomes) came out at 5.4 µL/min/mg.
In [5], `c1cc([C@H]2CC[C@]3(CC2)OO[C@]2(O3)C3CC4CC(C3)CC2C4)ccc1OCCN1CCOCC1` [ARTEFENOMEL] yielded a solubility at 1 h of 120 µg/mL (≈ 256 µM). The same compound returned an IC50 with Plasmodium falciparum [12] of 5.1 nM. In addition, in [7], the pH is reported as 6.6. The compound also showed a solubility in data set [9] of 0.85 µM (≈ 0.399 µg/mL).
Consider `c1cc(C2CCCC3(C2)OOC2(OO3)C3CC4CC(C3)CC2C4)ccc1OCCN1CCOCC1` (centres undefined), for which the IC50 with Plasmodium falciparum [1] worked out at 16.4 nM; with Plasmodium falciparum [2], 17.7 nM.
For the compound `FC1CCN(CCOc2ccc([C@H]3CCCC4(C3)OOC3(OO4)C4CC5CC(C4)CC3C5)cc2)CC1` (some centres undefined), the microsomal CLint in data set [3] turned out to be 26.3 µL/min/mg. For the same compound, the solubility in data set [4] was 1270 µg/mL (≈ 2530 µM); in data set [9], 0.1 µM (≈ 0.0502 µg/mL). Moreover, in data set [5], the concentration in solution (solubility at 1 h) came to 413 µg/mL (≈ 823 µM). Also, the half-inhibitory concentration (IC50) in the data set with Plasmodium falciparum [1] was 20.8 nM; in the data set on Plasmodium falciparum [2], 22.5 nM. For the same compound, in data set [6], the hepatocyte CLint came to 16.7 µL/min/1e6 cells. Moreover, the pH in [7] is on record as 6.43; in [8], 1.14.
For the compound `c1cc(C2CCCC3(C2)OOC2(OO3)C3CC4CC(C3)CC2C4)ccc1CN1CCOCC1` (racemic), the half-inhibitory concentration (IC50) in the data set on Plasmodium falciparum [1] stood at 15.4 nM; in the data set with Plasmodium falciparum [2], 11.2 nM.
For `FC1CCN(Cc2ccc(C3CCCC4(C3)OOC3(OO4)C4CC5CC(C4)CC3C5)cc2)CC1` (racemic) the same measures were 15.7 nM and 14.4 nM.
For `FC1CCN(CCOc2ccc(C3CCCC4(C3)OOC3(OO4)C4CC5CC(C4)CC3C5)cc2)CC1` (racemic) the same measures were 12.9 nM and 12.8 nM.
For the compound `FC1CCN(CCOc2ccc(C3CCC4(CC3)OOC3(OO4)C4CC5CC(C4)CC3C5)cc2)CC1` (centres undefined), the microsomal CLint in data set [3] amounted to 23 µL/min/mg. The solubility in [4] amounted to 1790 µg/mL (≈ 3570 µM); in data set [9], 0.1 µM (≈ 0.0502 µg/mL). For the same compound, the concentration in solution in data set [5] (solubility at 1 h) was 215 µg/mL (≈ 429 µM). Moreover, the values for the IC50 in the data set on Plasmodium falciparum [1] and in the data set with Plasmodium falciparum [2] were 8.96 nM and 8.49 nM, respectively. In addition, the hepatocyte CLint in [6] was 12 µL/min/1e6 cells. In addition, the pH in data set [7] is recorded as 6.42; in [8], 1.13.
Take `c1cc(C2CCC3(CC2)OOC2(OO3)C3CC4CC(C3)CC2C4)ccc1CN1CCOCC1` (centres undefined): the Tmax in [13] amounted to 4.33 h. The solubility came to 21.2 µg/mL (≈ 46.5 µM) in data set [4] and 0.106 µM (≈ 0.0483 µg/mL) in [9]. The concentration in data set [14] peaked (Cmax) at 136 ng/mL. In data set [5], this compound gave a solubility at 1 h of 24 µg/mL (≈ 52.7 µM). The IC50 in the data set with Plasmodium falciparum [1] came out at 9.38 nM; in the data set on Plasmodium falciparum [2] it was 8.65 nM. Moreover, the pH is 6.1 in [7] and 1 in data set [8]. Also, the bioavailability in [15] was found to be 41.3%. The AUC(0-inf) in data set [16] was 608 ng·h/mL.
Regarding `c1cc([C@@H]2CCCC3(C2)OOC2(OO3)C3CC4CC(C3)CC2C4)ccc1CN1CCOCC1` (some centres undefined), the Tmax in data set [13] was 2 h. Moreover, the microsomal CLint in data set [3] worked out at 27.1 µL/min/mg. The figures for the solubility in data set [4] and in data set [9] were 188 µg/mL (≈ 413 µM) and 0.1 µM (≈ 0.0456 µg/mL), respectively. The Cmax in data set [14] came out at 410 ng/mL. In addition, the concentration in solution in [5] (solubility at 1 h) came to 324 µg/mL (≈ 711 µM). Also, the IC50 with Plasmodium falciparum [1] stood at 12.5 nM; in the data set on Plasmodium falciparum [2], 11.2 nM. In addition, the hepatocyte CLint in [6] was determined as 26.2 µL/min/1e6 cells. Further, the pH in data set [7] was 6.43; in data set [8] it was 1.12. For the same compound, the bioavailability in [15] came to 76.4%. In data set [16], this compound registered an AUC(0-inf) of 1440 ng·h/mL.
As for `FC1CCN(CCOc2ccc([C@@H]3CCCC4(C3)OOC3(OO4)C4CC5CC(C4)CC3C5)cc2)CC1` (some centres undefined), the microsomal CLint in [3] stood at 19.8 µL/min/mg. The half-maximal inhibitory concentration (IC50) turned out to be 17.5 nM in the data set on Plasmodium falciparum [1] and 19.2 nM in the data set on Plasmodium falciparum [2]. The hepatocyte CLint in [6] came out at 13.5 µL/min/1e6 cells. The solubility in data set [9] amounted to 0.1 µM (≈ 0.0502 µg/mL).
Take `FC1CCN(Cc2ccc([C@H]3CCCC4(C3)OOC3(OO4)C4CC5CC(C4)CC3C5)cc2)CC1` (some centres undefined): the microsomal CLint in data set [3] is 26.7 µL/min/mg. For the same compound, the values for the solubility in data set [4] and in data set [9] were 60 µg/mL (≈ 127 µM) and below 0.1 µM, respectively. In data set [5], this compound yielded a solubility at 1 h of 189 µg/mL (≈ 401 µM). In addition, the results for the half-maximal inhibitory concentration (IC50) in the data set on Plasmodium falciparum [1] and with Plasmodium falciparum [2] were 16.5 nM and 14.9 nM, respectively. In data set [6], the hepatocyte CLint was 30.7 µL/min/1e6 cells. For the same compound, the pH in [7] is reported as 6.44; in data set [8], 1.14.
On to `c1cc([C@@H]2CCCC3(C2)OOC2(OO3)C3CC4CC(C3)CC2C4)ccc1OCCN1CCOCC1` (some centres undefined), for which the microsomal CLint in data set [3] stood at 22.2 µL/min/mg. Moreover, the half-inhibitory concentration (IC50) in the data set on Plasmodium falciparum [1] was found to be 17.4 nM; in the data set with Plasmodium falciparum [2], 16 nM. Moreover, the hepatocyte CLint in [6] was found to be 21.6 µL/min/1e6 cells. Further, the concentration in solution in data set [9] (solubility) was 0.1 µM (≈ 0.0486 µg/mL).
Regarding `c1cc([C@H]2CCCC3(C2)OOC2(OO3)C3CC4CC(C3)CC2C4)ccc1OCCN1CCOCC1` (some centres undefined), the microsomal CLint in data set [3] was found to be 22.1 µL/min/mg. For the same compound, the solubility came to 284 µg/mL (≈ 585 µM) in [4] and 0.1 µM (≈ 0.0486 µg/mL) in data set [9]. In data set [5], this compound returned a solubility at 1 h of 69 µg/mL (≈ 142 µM). Moreover, the IC50 in the data set with Plasmodium falciparum [1] stood at 16 nM; with Plasmodium falciparum [2], 15.8 nM. Moreover, in [6], the hepatocyte CLint turned out to be 49.2 µL/min/1e6 cells. For the same compound, the pH in [7] is 6.42; in [8], 1.11.
`FC1CCN(Cc2ccc(C3CCC4(CC3)OOC3(OO4)C4CC5CC(C4)CC3C5)cc2)CC1` (centres undefined) registered a solubility in data set [4] of 101 µg/mL (≈ 214 µM). Moreover, the concentration in solution in data set [5] (solubility at 1 h) came to 14.8 µg/mL (≈ 31.4 µM). Also, the IC50 in the data set with Plasmodium falciparum [1] is 16.1 nM; in the data set on Plasmodium falciparum [2], 11.7 nM. Moreover, the pH is 6.1 in [7] and 1 in data set [8].
In the data set with Plasmodium falciparum [2], `NC1CCN(C(=O)O[C@@H]2CCC[C@]3(C2)OOC2(O3)C3CC4CC(C3)CC2C4)CC1` (some centres undefined) showed a concentration for a half-maximal effect (EC50) of 1.8 nM. The microsomal CLint in data set [11] (liver microsomes, read-out: CLH) is 155 µL/min/mg.
`C[C@H]1[C@@H](O)O[C@@H]2O[C@@]3(C)CC[C@H]4[C@H](C)CC[C@@H]1[C@@]24OO3` [ARTENIMOL]: the half-inhibitory concentration (IC50) with Plasmodium falciparum [1] came to 2.59 nM; with Plasmodium falciparum [2] it was 1.02 nM.
As for `c1cc([C@H]2CCCC3(C2)OOC2(OO3)C3CC4CC(C3)CC2C4)ccc1CN1CCOCC1` (some centres undefined), the microsomal CLint in data set [3] came to 19.7 µL/min/mg. In addition, the solubility was 165 µg/mL (≈ 362 µM) in data set [4] and 0.1 µM (≈ 0.0456 µg/mL) in [9]. In data set [5], this compound displayed a solubility at 1 h of 248 µg/mL (≈ 544 µM). In addition, the IC50 with Plasmodium falciparum [1] and in the data set with Plasmodium falciparum [2] was 15.2 nM each time. Moreover, the hepatocyte CLint in [6] stood at 50.2 µL/min/1e6 cells. For the same compound, the pH is given as 6.42 in [7] and 1.13 in data set [8].

In general, IC50 refers to the point on the concentration scale where inhibition reaches its midpoint. Read a low IC50 as inhibition by little substance. Usually solubility stands for how much of the substance goes into solution per volume. Read a low solubility as little dissolved substance. One may read the Tmax as the time at which the peak concentration occurs. By Cmax is commonly meant the peak of the concentration-time curve. One may read the bioavailability as the share of a dose that reaches the circulation, judged against a reference dose that is usually intravenous. Lower therefore signals poor availability. A word on the AUC(0-inf): it is the area under the concentration-time curve extrapolated to infinity. Higher therefore signals more exposure. Usually EC50 stands for the concentration that produces a half-maximal response.
